Results on three compounds are retold here after US7674823B2, “DNA-PK inhibitors” (Cancer Research Technology Limited, priority 2001, dated 2010).

In assay [1] the test system is PI 3-kinase (p110α/p85α). Nature of the assay: PI 3-kinase inhibition assay. The assay is classed as biochemical. As to conditions: selectivity ratio from the IC50s for PI 3-kinase and DNA-PK. An excerpt:
(§1) In order to assess the inhibitory action of the compounds against PI 3-kinase in vitro, the following assay was used to determine IC50 values.
(§2) Baculoviral recombinant GST-fused PI 3-kinase (p110α/p85α) was purified from Sf9 insect cells using GSH-sepharose affinity chromatography as described (Wymann, M. T et al., (1996) Wortmannin inactivates phosphoinositide 3-kinase by covalent modification of Lys-802, a residue involved in the phosphate transfer reaction. Mol. Cell Biol. 16:1722-1733). PI 3-kinase (1 μl) was diluted in reaction buffer (89 μl of 50 mM Hepes pH 7.5, 150 mM NaCl, 0.1 mM Sodium Orthovanadate, containing 20 μg of phosphatidylinositol) and varying concentrations of inhibitor compound added. […] Reactions were incubated for a further 20 minutes at 37° C., before quenching with the addition of 400 μl of chloroform/methanol (1:1). Reactions were acidified by the addition of 200 μl of 1M HCl, before separation of the organic and aqueous phases by centrifugation at 10,000 g for 30 seconds. The organic phase was transferred to a fresh tube and washed twice with 150 μl of 1M hydrochloric acid/methanol (1:1), discarding the aqueous phase. The washed reaction product was then placed in a white 96-well plate with 100 μl of scintillation fluid and transferred to a TopCount NXT for scintillation counting. Counts per minute, following a one minute counting time, were recorded for each reaction. The inhibition of PI 3-kinase activity by compounds was calculated as described above for the DNA-PK assay.
(§3) The selectivity was determined by the following equation: […]

The target of assay [2] is T1, PI 3-kinase (p110α/p85α) (UniProt P32871).
T1 construct: other: GST-fused p110α/p85α
The assay is described as follows: PI 3-kinase inhibition assay. It is filed as biochemical. As to conditions: GST-fused p110α/p85α.
Excerpt: as §1, §2, §3

A word on the IC50: it is the midpoint of a concentration-inhibition curve.

On to `O=c1cc(N2CCOCC2)oc2c3c(ccc12)CCCC3` [Compound 297, 7,8,9,10-tetrahydro-benzo[h]-2-(morpholin-4-yl)-chromen-4-one], for which the “Δ(DNA-PK/PI 3-K)” value in the assay with PI 3-kinase (p110α/p85α) [1] was determined as 36. At PI 3-kinase (p110α/p85α) [2], 18 µM corresponded to half-maximal inhibition (IC50).

In the case of `CC1CN(c2cc(=O)c3ccc4ccccc4c3o2)CCO1` (stereo not drawn) [Compound 317, 2-(2-Methyl-morpholin-4-yl)-benzo[h]chromen-4-one], the “Δ(DNA-PK/PI 3-K)” value with PI 3-kinase (p110α/p85α) [1] came out at 8. The half-inhibitory concentration (IC50) against PI 3-kinase (p110α/p85α) [2] turned out to be 2.5 µM.

For the compound `O=C1c2ccccc2C(=O)N1CCCOc1ccc2c(=O)cc(N3CCOCC3)oc2c1` [Compound 422, N-[3-(2-(Morpholin-4-yl)-4-oxo-4H-chromen-7-yloxy)-propyl]-phthalimide], the “Δ(DNA-PK/PI 3-K)” value in the assay on PI 3-kinase (p110α/p85α) [1] was 12. The compound further displayed an IC50 on PI 3-kinase (p110α/p85α) [2] of 6 µM.
